Reference: patent publication US20260200926A1, “TREM2 MODULATORS” (Muna Therapeutics ApS, priority 2022, published 2026)

Target: T1, Human TREM2 (Homo sapiens, UniProt Q9NZC2)
T1 construct: expressed in transfected cells
Assay: Human TREM2 activity: cellular phosphorylation of Syk (AlphaLISA SureFire Ultra p-SYK) in HEK293/DAP12+TREM2 stable cell line
Type: cell-based
Settings: for Emax: HEK293, maximal response relative to reference agonist example 1B (remaining examples), read-out: Emax; for EC50: phospho-Syk AlphaLISA signal, HEK293/DAP12+TREM2 cells, concentration giving 50% of maximal response, read-out: EC50
How it was run: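 The read-out was p-Syk (Tyr525/526), measured by AlphaLISA in lysates of a stable HEK293/DAP12+TREM2 clone. Cells (10,000/well, plated the day before) received compound for 30 min at 37 °C. Dosing used 8 points in quadruplicate, top 100 μM with 1:6 dilution, 0.5% final DMSO.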

T1 sequence (Q9NZC2 19-230): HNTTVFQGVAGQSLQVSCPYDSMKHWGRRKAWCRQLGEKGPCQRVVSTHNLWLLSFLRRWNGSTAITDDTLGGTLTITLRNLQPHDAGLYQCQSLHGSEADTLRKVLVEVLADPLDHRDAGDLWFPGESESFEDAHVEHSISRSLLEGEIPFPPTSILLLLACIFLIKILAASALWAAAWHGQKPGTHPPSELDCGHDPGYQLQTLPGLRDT
T1 sequence (O43914 22-113 partner): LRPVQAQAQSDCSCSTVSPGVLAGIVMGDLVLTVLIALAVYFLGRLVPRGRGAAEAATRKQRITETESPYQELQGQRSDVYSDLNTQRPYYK

SMILES	Emax [%]	EC50 [nM]
CNC(=O)C1CN(c2nc(-c3ccc(Cl)cc3F)c3nc(C)n(C)c(=O)c3n2)CCO1 (centres unmarked) [Example 49, 4-(4-(4-chloro-2-fluorophenyl)-6,7-dimethyl-8-oxo-7,8-dihydropyrimido[5,4-d]pyrimidin-2-yl)-N-methylmorpholine-2-carboxamide]	< 75	> 1000
Cc1nc2c(-c3ccc(Cl)cc3F)nc(N3CCOC(C(=O)N(C)C)C3)nc2c(=O)n1C (centres unmarked) [Example 51, 4-(4-(4-chloro-2-fluorophenyl)-6,7-dimethyl-8-oxo-7,8-dihydropyrimido[5,4-d]pyrimidin-2-yl)-N,N-dimethylmorpholine-2-carboxamide]	75 to 110	> 1000
Cc1nc2c(-c3ccc(Cl)cc3F)nc(N3CCOC4(CCCC4)C3)nc2c(=O)n1C [Example 54, 8-(4-chloro-2-fluorophenyl)-2,3-dimethyl-6-(6-oxa-9-azaspiro[4.5]decan-9-yl)pyrimido[5,4-d]pyrimidin-4(3H)-one]	< 75	> 1000
Cc1nc2c(-c3ccc(Cl)cc3F)nc(N3CCOC(C)(c4cnn(C)c4)C3)nc2c(=O)n1C (centres unmarked) [Example 55, 8-(4-chloro-2-fluorophenyl)-2,3-dimethyl-6-(2-methyl-2-(1-methyl-1H-pyrazol-4-yl)morpholino)pyrimido[5,4-d]pyrimidin-4(3H)-one]	< 75	> 1000
Cc1nc2c(-c3ccc(Cl)cc3F)nc(N3CCOC4(CCN(C)CC4)C3)nc2c(=O)n1C [Example 56, 8-(4-chloro-2-fluorophenyl)-2,3-dimethyl-6-(9-methyl-1-oxa-4,9-diazaspiro[5.5]undecan-4-yl)pyrimido[5,4-d]pyrimidin-4(3H)-one]	< 75	> 1000
Cc1nc2c(-c3ccc(Cl)cc3F)nc(N3CCOC(C)(C)C3)nc2c(=O)n1C [Example 57, 8-(4-chloro-2-fluorophenyl)-6-(2,2-dimethylmorpholino)-2,3-dimethylpyrimido[5,4-d]pyrimidin-4(3H)-one]	< 75	> 1000
Cc1nc2c(-c3ccc(Cl)cc3F)nc(N3CCOC(c4ncon4)C3)nc2c(=O)n1C (centres unmarked) [Example 58, 6-(2-(1,2,4-oxadiazol-3-yl)morpholino)-8-(4-chloro-2-fluorophenyl)-2,3-dimethylpyrimido[5,4-d]pyrimidin-4(3H)-one]	75 to 110	100 to 1000
COc1ccc(Cn2c(C)nc3c(-c4ccc(Cl)cc4F)nc(N4CCOC(c5cnn(C)c5)C4)nc3c2=O)cc1 (centres unmarked) [Example 59, 8-(4-chloro-2-fluorophenyl)-3-(4-methoxybenzyl)-2-methyl-6-(2-(1-methyl-1H-pyrazol-4-yl)morpholino)pyrimido[5,4-d]pyrimidin-4(3H)-one]	75 to 110	100 to 1000
Cc1nc2c(-c3ccc(Cl)cc3F)nc(N3CCOC(c4cnn(C)c4)C3)nc2c(=O)[nH]1 (centres unmarked) [Example 60, 8-(4-chloro-2-fluorophenyl)-2-methyl-6-(2-(1-methyl-1H-pyrazol-4-yl)morpholino)pyrimido[5,4-d]pyrimidin-4 (3H)-one]	< 75	100 to 1000
Cc1nc2c(-c3ccc(F)cc3Cl)nc(N3CCOC(c4cnn(C)c4)C3)nc2c(=O)n1C (centres unmarked) [Example 70, 8-(2-chloro-4-fluorophenyl)-2,3-dimethyl-6-(2-(1-methyl-1H-pyrazol-4-yl)morpholino)pyrimido[5,4-d]pyrimidin-4 (3H)-one]	< 75	> 1000
Cc1nc2c(C3CC4(C3)CC(F)(F)C4)nc(N3CCOC(c4cnn(C)c4)C3)nc2c(=O)n1C (centres unmarked) [Example 72, 8-(6,6-difluorospiro[3.3]heptan-2-yl)-2,3-dimethyl-6-(2-(1-methyl-1H-pyrazol-4-yl)morpholino)pyrimido[5,4-d]pyrimidin-4 (3H)-one]	75 to 110	100 to 1000
Cc1nc2c(-c3ccc(Cl)cc3F)nc(N3CCOC(c4cn(C)nn4)C3)nc2c(=O)n1C (centres unmarked) [Example 73, 8-(4-chloro-2-fluorophenyl)-2,3-dimethyl-6-(2-(1-methyl-1H-1,2,3-triazol-4-yl)morpholino)pyrimido[5,4-d]pyrimidin-4 (3H)-one]	75 to 110	100 to 1000
Cc1nc2c(-c3ccc(Cl)cc3F)nc(N3CC[C@H](Oc4cnn(C)c4)C3)nc2c(=O)n1C [Example 74, (S)-8-(4-chloro-2-fluorophenyl)-2,3-dimethyl-6-(3-((1-methyl-1H-pyrazol-4-yl)oxy)pyrrolidin-1-yl)pyrimido[5,4-d]pyrimidin-4 (3H)-one]	< 75	> 1000
Cc1nc2c(-c3ccc(Cl)cc3F)nc(N3CCC[C@H](Oc4cnn(C)c4)C3)nc2c(=O)n1C [Example 75, (S)-8-(4-chloro-2-fluorophenyl)-2,3-dimethyl-6-(3-((1-methyl-1H-pyrazol-4-yl)oxy)piperidin-1-yl)pyrimido[5,4-d]pyrimidin-4 (3H)-one]	< 75	100 to 1000
Cc1nc2c(-c3ccc(Cl)cc3F)nc(N3CCC[C@@H](Oc4cnn(C)c4)C3)nc2c(=O)n1C [Example 76, (R)-8-(4-chloro-2-fluorophenyl)-2,3-dimethyl-6-(3-((1-methyl-1H-pyrazol-4-yl)oxy)piperidin-1-yl)pyrimido[5,4-d]pyrimidin-4 (3H)-one]	75 to 110	100 to 1000
Cc1nc2c(-c3ccc(Cl)cc3F)nc(N3CCC(Oc4cnn(C)c4)CC3)nc2c(=O)n1C [Example 77, 8-(4-chloro-2-fluorophenyl)-2,3-dimethyl-6-(4-((1-methyl-1H-pyrazol-4-yl)oxy)piperidin-1-yl)pyrimido[5,4-d]pyrimidin-4 (3H)-one]	75 to 110	> 1000
Cc1nc2c(-c3ccc(Cl)cc3F)nc(N3CCCC(N4CCOCC4)C3)nc2c(=O)n1C (centres unmarked) [Example 78, 8-(4-chloro-2-fluorophenyl)-2,3-dimethyl-6-(3-morpholinopiperidin-1-yl)pyrimido[5,4-d]pyrimidin-4 (3H)-one]	75 to 110	100 to 1000
COC1CN(C2CCCN(c3nc(-c4ccc(Cl)cc4F)c4nc(C)n(C)c(=O)c4n3)C2)C1 (centres unmarked) [Example 79, 8-(4-chloro-2-fluorophenyl)-6-(3-(3-methoxyazetidin-1-yl)piperidin-1-yl)-2,3-dimethylpyrimido[5,4-d]pyrimidin-4 (3H)-one]	< 75	> 1000
Cc1nc2c(-c3ccc(Cl)cc3F)nc(N3CCCC(N4CC(F)(F)C4)C3)nc2c(=O)n1C (centres unmarked) [Example 80, 8-(4-chloro-2-fluorophenyl)-6-(3-(3,3-difluoroazetidin-1-yl)piperidin-1-yl)-2,3-dimethylpyrimido[5,4-d]pyrimidin-4 (3H)-one]	< 75	> 1000

Now from value to molecule:

Emax [%]	EC50 [nM]	SMILES
< 75	10 to 100	Cc1nc2c(-c3ccc(Cl)cc3F)nc(N3CCOC(c4nccs4)C3)nc2c(=O)n1C (centres unmarked) [Example 48, 8-(4-chloro-2-fluorophenyl)-2,3-dimethyl-6-(2-(thiazol-2-yl)morpholino)pyrimido[5,4-d]pyrimidin-4(3H)-one]
< 75	10 to 100	Cc1nc(C2CN(c3nc(-c4ccc(Cl)cc4F)c4nc(C)n(C)c(=O)c4n3)CCO2)no1 (centres unmarked) [Example 50, 8-(4-chloro-2-fluorophenyl)-2,3-dimethyl-6-(2-(5-methyl-1,2,4-oxadiazol-3-yl)morpholino)pyrimido[5,4-d]pyrimidin-4(3H)-one]
75 to 110	100 to 1000	COCC1CN(c2nc(-c3ccc(Cl)cc3F)c3nc(C)n(C)c(=O)c3n2)CCO1 (centres unmarked) [Example 52, 8-(4-chloro-2-fluorophenyl)-6-(2-(methoxymethyl)morpholino)-2,3-dimethylpyrimido[5,4-d]pyrimidin-4(3H)-one]
75 to 110	100 to 1000	Cc1nc2c(-c3ccc(Cl)cc3F)nc(N3CCOC(CN(C)C)C3)nc2c(=O)n1C (centres unmarked) [Example 53, 8-(4-chloro-2-fluorophenyl)-6-(2-((dimethylamino)methyl)morpholino)-2,3-dimethylpyrimido[5,4-d]pyrimidin-4(3H)-one]
< 75	10 to 100	COCCn1c(C)nc2c(-c3ccc(Cl)cc3F)nc(N3CCOC(c4cnn(C)c4)C3)nc2c1=O (centres unmarked) [Example 61, 8-(4-chloro-2-fluorophenyl)-3-(2-methoxyethyl)-2-methyl-6-(2-(1-methyl-1H-pyrazol-4-yl)morpholino)pyrimido[5,4-d]pyrimidin-4(3H)-one]
< 75	1 to 10	Cc1nc2c(-c3ccc(Cl)cc3F)nc(N3CC(c4cnn(C)c4)OC(C)(C)C3)nc2c(=O)n1C (centres unmarked) [Example 62, 8-(4-chloro-2-fluorophenyl)-6-(2,2-dimethyl-6-(1-methyl-1H-pyrazol-4-yl)morpholino)-2,3-dimethylpyrimido[5,4-d]pyrimidin-4 (3H)-one]
< 75	10 to 100	Cc1nc2c(-c3ccc(Cl)cc3F)nc(N3CCC(c4cnn(C)c4)C3)nc2c(=O)n1C (centres unmarked) [Example 63, 8-(4-chloro-2-fluorophenyl)-2,3-dimethyl-6-[3-(1-methyl-1H-pyrazol-4-yl)pyrrolidin-1-yl]-3H,4H-pyrimido[5,4-d][1,3]diazin-4-one]
< 75	10 to 100	Cc1nc2c(-c3ccc(Cl)cc3F)nc(N3CC[C@@H](Oc4cnn(C)c4)C3)nc2c(=O)n1C [Example 64, (R)-8-(4-chloro-2-fluorophenyl)-2,3-dimethyl-6-(3-((1-methyl-1H-pyrazol-4-yl)oxy)pyrrolidin-1-yl)pyrimido[5,4-d]pyrimidin-4 (3H)-one]
< 75	10 to 100	COCCn1cc(C2CN(c3nc(-c4ccc(Cl)cc4F)c4nc(C)n(C)c(=O)c4n3)CCO2)cn1 (centres unmarked) [Example 69, 8-(4-chloro-2-fluorophenyl)-6-(2-(1-(2-methoxyethyl)-1H-pyrazol-4-yl)morpholino)-2,3-dimethylpyrimido[5,4-d]pyrimidin-4 (3H)-one]
